Target: Beta-2 adrenergic receptor (Rattus norvegicus) (UniProt P10608)
Assay: Binding of [3H]dihydroalprenolol to beta-2 adrenergic receptor of rat cerebellar membranes

Sequence of Beta-2 adrenergic receptor (Rattus norvegicus) (P10608 whole entry, looked up): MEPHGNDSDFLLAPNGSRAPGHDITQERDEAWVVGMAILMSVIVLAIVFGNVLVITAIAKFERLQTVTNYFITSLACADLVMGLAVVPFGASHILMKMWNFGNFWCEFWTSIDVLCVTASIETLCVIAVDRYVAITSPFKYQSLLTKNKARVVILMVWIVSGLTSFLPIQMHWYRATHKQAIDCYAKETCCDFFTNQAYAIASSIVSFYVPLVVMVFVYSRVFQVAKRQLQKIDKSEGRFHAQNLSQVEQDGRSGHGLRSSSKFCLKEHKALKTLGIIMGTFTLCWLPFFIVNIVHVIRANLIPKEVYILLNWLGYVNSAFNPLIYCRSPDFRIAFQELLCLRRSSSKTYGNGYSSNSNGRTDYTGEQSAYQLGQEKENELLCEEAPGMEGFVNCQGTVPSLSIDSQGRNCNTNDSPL

| Compound | Ki |
| --- | --- |
| CNC[C@H](O)c1cc(O)c(O)cc1F [(R)4-Fluoro-5-(1-hydroxy-2-methylamino-ethyl)-benzene-1,2-diol] | 38 µM |
| NCCc1ccc(O)c(O)c1 | 50 µM |
| CNCC(O)c1cc(O)c(O)cc1F (stereo not drawn) [(+/-)4-Fluoro-5-(1-hydroxy-2-methylamino-ethyl)-benzene-1,2-diol] | 50 µM |
